Data published in patent publication US8742173B2, “Phenolic hydrazone macrophage migration inhibitory factor inhibitors” (The Feinstein Institute for Medical Research, priority 2006, dated 2014).
Read-outs that look alike come from different tables or passages of the source. Values belong to the compound of their own block, whether it stands above or below them.

Columns and labels:
[1] = system: LPS-treated macrophages; settings: cited from earlier work
[2] = system: Balb/C mice; settings: Al-Abed et al., 2005; cited from earlier work
[3] = target: T1, MIF (Homo sapiens, UniProt P14174); experiment: Spectrophotometric assay of MIF tautomerase activity on L-dopachrome methyl ester; assay type: biochemical
T1 sequence (P14174 2-115 limits assumed): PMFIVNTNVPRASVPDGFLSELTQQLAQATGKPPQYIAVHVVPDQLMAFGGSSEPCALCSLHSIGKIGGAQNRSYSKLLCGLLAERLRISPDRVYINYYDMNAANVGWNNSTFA

[4] = system: Swiss Webster male mice; experiment: Carrageenan air pouch model, leukocyte recruitment; assay type: in vivo; settings: oral administration; assessed by inhibition of leukocyte infiltration
Description: Air pouches were made according to standard procedures (Garcia-Ramallo et al., 2002) on Swiss Webster male mice (25-30 g) by injecting sterile air s.c. on day 0 (6 ml) and day 3 (3 ml). On day 6, animals were treated with vehicle (350 μl of 20% DMSO) or compound 7 (7 mg/kg) either intraperitoneal (i.p.) or gavage (oral) as indicated. After 15 min, the animals were challenged by injecting 1 ml 1% carrageenan (in PBS) into the air pouch cavity. Five hrs after carrageenan injection the animals were sacrificed, the pouches washed with PBS, exudate collected, and the total number of infiltrating cells quantitated.
In another experiment, air pouches were made as above. On day 6, animals were treated with vehicle (350 μl of 20% DMSO) or compound 7 (7 mg/kg, gavage) at the indicated times prior to sacrificing and cell harvesting. In all cases, 1% carrageenan was injected into the air pouch cavity 5 hrs before sacrificing.

[5] = system: Balb/C mice; experiment: Cecal ligation and puncture (CLP) sepsis model, survival; assay type: in vivo; settings: 4 mg/kg intraperitoneal, initiated 24 h after CLP, continued for 3 days; control 28%
Description: FIG. 4 is a graph of experimental results showing that the hydrazone compound 7 is protective after 24 h late treatment in a CLP model. Mice were injected intraperitoneally with compound 7 (“hydrazone”) (4 mg/kg) (n=13, p<0.01) or vehicle 24 h after CLP (n=13). A single injection was composed of 100 μg of Compound 7 (equivalent to 4 mg/kg) in 200 μL of 20% DMSO: 80% saline solution. Additional administrations of compound 7 (bi-daily) were given on days 2 and 3.
All animal experiments were approved by the Institutional Animal Care and Use Committee of the North Shore-Long Island Jewish Research Institute. Male Balb/C mice, ˜8 weeks old, were subjected to cecal ligation and puncture. Details of the CLP procedure has been carried out as follows: In anesthetized male Balb/C mice (ketamine 100 mg/kg and xylazine 8 mg/kg administered intramuscularly) the cecum was ligated and given a single puncture. Abdominal access was gained via a midline incision. The cecum was isolated and ligated with a 6-0 silk ligature below the ileocecal valve, and the cecum punctured once with a 22 G needle, stool (approximately 1 mm) extruded from the hole, and the cecum placed back into the abdominal cavity. The abdomen was closed with two layers of 6-0 Ethilon sutures. […] Animal survival was monitored for 14 days. […]

[6] = target: T1, MIF; settings: previously shown (Dios et al., 2002); read-out: IC50, L-amino acid Schiff bases, MIF tautomerase; cited from earlier work
[7] = Table 1, L-dopachrome methyl ester substrate, read-out: IC50 for inhibition of MIF tautomerase activity
[8] = read-out: IC50, MIF tautomerase activity
[9] = read-out: IC50, MIF tautomerase

Compound: COC(=O)CC1CC(c2ccc(O)cc2)=NO1 (stereo not drawn) [Compound 2, ISO-1]
inhibition of LPS-induced TNF release ([1]; MIF null macrophages): not
inhibition of LPS-induced TNF release ([1]; wild-type macrophages): dose-dependently inhibits
survival in septic mice [2]: significantly improves survival

Compound: COc1ccc(NN=Cc2ccc(O)c(F)c2)cc1 [Compound 7]
IC50 [3, 9]: 130 nM
apparent biological half-life [4]: 7-9 hours
survival rate [5]: 65%

Compound: COc1ccc(NN=Cc2ccc(O)c(Cl)c2)cc1 [Compound 8]
IC50 [3, 9]: 220 nM
melting point: 108 to 110 °C

Compound: COc1ccc(NN=Cc2ccc(O)c(Br)c2)cc1 [Compound 9]
IC50 [3, 9]: 330 nM
melting point: 135 to 137 °C

Compound: CC(C)(C)OC(=O)NN=Cc1ccc(O)c(F)c1 [Compound 18]
IC50 ([3]; Table 2, hydrazone carbamates, L-dopachrome methyl ester substrate, read-out: IC50 for inhibition of MIF tautomerase activity): 2400 nM

Compound: N[C@@H](Cc1ccccc1)C(=O)O [L-phenylalanine]
IC50 [6]: 50000 nM

Compound: N[C@@H](Cc1ccc(O)cc1)C(=O)O [L-tyrosine]
IC50 [6]: 10000 nM

More lines, now with the values ahead:

IC50 [3, 7]: > 500000 nM
IC50 [3, 8]: > 500000 nM
melting point: 248 to 250 °C
Compound: NN=Cc1ccc(O)cc1 [Compound 3]

IC50 [3, 8]: 43000 nM
melting point: 58 to 60 °C
Compound: CNN=Cc1ccc(O)cc1 [Compound 4]

IC50 [3, 8]: 2600 nM
melting point: 154 to 156 °C
Compound: Oc1ccc(C=NNc2ccccc2)cc1 [Compound 5]

IC50 [3, 7]: 480 nM
Compound: COc1ccc(NN=Cc2ccc(O)cc2)cc1 [Compound 6]

IC50 [3, 8]: 300000 nM
melting point: 93 to 95 °C
Compound: CN(N=Cc1ccc(O)cc1)c1ccccc1 [Compound 10]

melting point: 189 to 190 °C
Compound: CCOC(=O)NN=Cc1ccc(O)cc1 [Compound 12]

melting point: 155 to 156 °C
Compound: CC(C)(C)OC(=O)NN=Cc1ccc(O)cc1 [Compound 13]

melting point: 159 to 160 °C
Compound: O=C(NN=Cc1ccc(O)cc1)OCc1ccccc1 [Compound 14]

melting point: 147 to 148 °C
Compound: COc1ccc(COC(=O)NN=Cc2ccc(O)cc2)cc1 [Compound 15]
